Earlier results in patent US20180369129A1, “MICROBIOME-COMPATIBLE COSMETICS” (AOBIOME LLC, priority 2015, published 2018).

What was measured:
[1] = tested on: NOS; settings: reduction in basal NO levels
[2] = tested on: NOS; settings: rat pancreatic islets; through the induction of iNOS

SMILES: COC(=O)[C@@H](N)CCCNC(=N)N[N+](=O)[O-] [L-NAME]
- effect of chronic inhibition of NOS on heart and kidneys [1]: generalized fibrosis of the heart and kidneys
- total NO production [2]: increases total NO production
